In data set [1] the test system is tongue and/or esophageal tumors. As to the kind of experiment: Carcinogen induction of tongue and/or esophageal tumors. The note with it: carcinogen-induced. The class given is in vivo, CB6F1-Tg rasH2@Jcl mice. The source says: Male CB6F1-Tg rasH2@Jcl mice (Tg) at 8 weeks of age are obtained and maintained in plastic cages. They are all allowed free access to a powdered basal diet of CRF (Charles River Formula)-1. A carcinogen, 4-nitroquinoline 1-oxide is used to induce tongue and/or esophageal tumors in this study.

In a further data set the test system is γδ T cells. Conditions: acid hydrolysed, diluted in media; peripheral blood mononuclear cells; (5%-75%); cited from earlier work.
The subject of a further data set is immune cells. Nature of the data set: Nutritional intervention on immune cells in tumor burdened animals with and without chemotherapy (FIG. 11). It counts as in vivo. The note with it: during the second phase (tumor-induced toxicity). The source says:
FIG. 11 illustrates a graph of the effect of nutritional intervention on immune cells in tumor burdened animals with and without chemotherapy in accordance with an embodiment of the present disclosure.

In data set [2] the test system is MCA-OVA 1×10^6 tumor cells. Nature of the data set: Tumor growth evaluation, test diets with or without chemotherapy (Example 2). It counts as in vivo, mice. How it is done:
(§1) The animals were distributed into 7 different group diets. There was a control group that received the diet AIN 93 for adult rodents (maintenance). […] Control animals without chemotherapeutic treatment were run in parallel for all tested diets. Body weight was assessed every two days. Blood samples were obtained at day 2, 4 and 10 after the chemo-treatment and at sacrifice (14 or 28 days). An autopsy was performed and tumor mass was assessed.
Methylcholanthrene (MCA) induced sarcoma cell line expressing the exogenous antigen ovalbumin (OVA) was grown in DMEM or RPMI 1640 supplemented with 2 mM L-glutamine, 10 mM HEPES, 20 μM 2-mercaptoethanol, 150 U/mL streptomycin, 200 U/mL penicillin, and 10% heat-inactivated FBS. 1×10^6 tumor cells were injected in the flank of the mice 6 days prior to the chemotherapy.
Growth of tumors was monitored every 2 d by using calipers, and tumor volume was calculated by using the formula length×width×width×0.52 mm^3.

For data set [3], the system named is red blood cell, white blood cell and immune cell populations. As to the kind of experiment: Haematological evaluation and flow cytometric analysis, test diets with chemotherapy (Example 2). It counts as in vivo, mice. The note with it: for Global lymphocyte population: following chemotherapy, supplemented diets. The protocol:
as §1, with “(maintenance). Test diets were administered in doses appropriate to the animal model: (a) Ctrl diet were supplemented with 1% (w/w) L-arginine, (b) 25% of the protein was replaced by glutamine, (c) 1% (w/w) L-citrulline, (d) 1 g/Kg body weight with active hexose correlated compound, (e) 20 mg/day of RNA nucleotides and (f) 25 mg/day of lactoferrin.” for “(maintenance).”

Data set [4] has the same test system. Nature of the data set: Haematological evaluation and flow cytometric analysis of tumor-bearing mice after chemotherapy (Example 1). It counts as in vivo. The note with it: after the chemotherapy.
A short description of data set [5]: Body weight of tumor-bearing mice after chemotherapy (Example 1). The note with it: maximal dose (10 mg/kg), of the initial body weight.
Description: Inbred eight-week-old C57BL/6 (H-2b) mice were used in the experiments. Mice were inoculated subcutaneously (s.c.) on the left flank with 1×10^6 tumor cells, and tumor growth was monitored every 2 days by caliper measurement. 6 days after the tumor inoculation the animals were treated either with oxaliplatin or doxorubicin. Tumor growth was monitored every two days after the chemotherapeutic treatment and they were sacrificed after two weeks of tumor implantation. Some experiments were carried out until 28 days post-chemo to better assess tumor growth.
Body weight was assessed every two days until sacrifice.
Data set [6] is described as follows: Body weight of tumor-bearing mice on test diets with chemotherapy (Example 2). The class given is in vivo. The note with it: maximal dose (10 mg/kg). The protocol: as §1, with “(maintenance). Test diets were administered in doses appropriate to the animal model: (a) Ctrl diet were supplemented with 1% (w/w) L-arginine, (b) 25% of the protein was replaced by glutamine, (c) 1% (w/w) L-citrulline, (d) 1 g/Kg body weight with active hexose correlated compound, (e) 20 mg/day of RNA nucleotides and (f) 25 mg/day of lactoferrin.” for “(maintenance).”

The test system of a further data set is NK cell. The note with it: about 750 mg per day for two weeks, cited from earlier work.

The source of these data is patent US9827216B2, “Nutritional support to prevent and/or mitigate bone marrow toxicity from a cancerous tumor” (Nestec S.A., priority 2008, dated 2017).

With `O=[N+]([O-])c1cc[n+]([O-])c2ccccc12` [4-nitroquinoline 1-oxide], in data set [1], the “mice developing tumors in the esophagus” value worked out at 60% and the “mice developing tumors on the tongue” value is 100%.

Consider `CCNC(=O)CC[C@H](N)C(=O)O` [L-theanine], for which, in the data set on γδ T cells, the “expansion of γδ T cells” value was 15 fold.

With `N=C(N)NCCC[C@H](N)C(=O)O` [arginine, L-arginine], the “immune cell population / concentration” value with immune cells is “increase immune cell concentration”. The tumor size result in data set [2] (combination with the chemotherapy treatment vs chemotherapy alone (FIG. 4)) is given as “further reduced the tumor size”. The “progression of the implanted tumor” value in data set [2] (supplemented diet compared to other groups) was “delayed progression”. Besides, the “loss of CD3+ cells” value in data set [3] (around 10 days post-chemotherapy, supplemented diet) is “partially modulated”. For the same molecule, the “fall of erythrocytes after chemotherapy” value in data set [3] (diet supplemented 1% (w/w), between days 6 and 10 post-chemo, vs control diet and other treatments (FIG. 3)) is “prevented the marked fall of erythrocytes”.

As for `NC(=O)NCCC[C@H](N)C(=O)O` [citrulline, L-citrulline], in [3], the Global lymphocyte population entry is recorded as “less depressed”.

As for `NC(=O)CC[C@H](N)C(=O)O` [glutamine], the Global lymphocyte population entry in data set [3] is “less depressed”.

Consider `O=C1[O][Pt]2([NH][C@@H]3CCCC[C@H]3[NH]2)[O]C1=O` [oxaliplatin], for which the “white blood cell counts” value in data set [4] is on record as “leukocyte counts that were higher that the baseline counts”. The Maximal weight loss entry in data set [5] and in [6] was “around 15%” in each case.

With vitamin E, the NKG2D expression entry in the data set on NK cell (all patients studied) was “small but consistent induction”. For the same molecule, the “NK cell cytolytic activity” value in the data set on NK cell (cancer patients) was “significantly improved”.
